The text below walks through data of patent publication US6372774B1, “Derivatives of N-phenylpyrazoles” (Rhone-Poulenc Agriculture Ltd., priority 1985, dated 2002).

Data set [1] concerns Megoura viciae (Vetch Aphid). Put plainly: Test 1(b): spray of infested tic bean plants, Megoura viciae. It is filed as in vivo. As to conditions: at 50 ppm, 2 days, score 0-3 per replicate, 4 replicates (maximum 12). On the procedure: (§1) One or more dilutions of the compounds to be tested were made in 50% aqueous acetone.
(b) Megoura viciae (Vetch Aphid)
Potted tic bean plants previously infected with mixed stages of Megoura were sprayed to run-off using a laboratory turntable sprayer. Treated plants were held in a greenhouse for 2 days and were assessed for aphid mortality using a scoring system, judging the response in comparison with plants treated with 50% aqueous acetone alone, as controls. Each treatment was replicated 4 times.

Data set [2] deals with Megoura viciae (Vetch Aphid). Kind of data set: Test 3 b): spray of infested tic bean plants, Megoura viciae. It is filed as in vivo. On the procedure: as §1
b) Megoura viciae (Vetch Aphid)
Potted tic bean plants previously infected with mixed stages of Megoura were sprayed to run-off using a laboratory turntable sprayer. Treated plants were held in a greenhouse for 2 days and were assessed for aphid mortality using a scoring system, judging the response in comparison with plants treated with 50% aqueous acetone alone, as controls.

Data set [3] relates to Phaedon cochleariae (Mustard Beetle). Put plainly: Test 3 a): leaf disc spray test, Phaedon cochleariae larvae. It is filed as in vivo. As to conditions: Phaedon cochleariae, foliar, read-out: Phaedon % m 10 ppm. Put shortly: (§2)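 Compounds were diluted in 50% aqueous acetone and sprayed in a Potter Tower onto turnip leaf discs in agar, each infested with 10 larvae (2nd instar Plutella, 3rd instar Phaedon), with four replicates per treatment. Mean percentage larval mortality was scored 4–5 days later at 25 °C.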

Data set [4] concerns larvae of Rhipicephalus appendiculatus. Put plainly: Test 4: tick larvae on guinea-pigs given subcutaneous injections. It is filed as in vivo. The conditions noted are these: for percentage survival through moulting of engorged tick larvae: recovered ticks kept at 23° C. for 14 to 21 days; for Result: ticks recovered / number of engorged ticks / Result: ticks recovered / engorgement: 4 subcutaneous injections to guinea-pigs, about 100 hours after infestation. On the procedure:
Some 20 larvae of Rhipicephalus appendiculatus were placed in plastic capsules attached to the shaved flank of guinea-pigs. After 3 hours and then at 23 hourly intervals, the guinea-pigs were given a total of 4 subcutaneous injections of the test compound. Approximately 100 hours after infestation, the guinea-pigs were killed and the engorged tick larvae recovered, counter and kept at 23° C. in a humidity cabinet for 14 to 21 days. After this period, the percentage survival through moulting was assessed.

Data set [5] deals with Plutella xylostella (Diamond-back Moth). Put plainly: whole plant or invertebrate. The class given is in vivo. As to conditions: foliar. Put shortly:
as §2

Where [6] appears, read: Dose 2.5 mg/kg at each repetition.
Where [7] appears, read: Dose 3 mg/kg at each repetition.
Where [8] appears, read: Dose 4 mg/kg at each repetition.
The mark [9] stands for this setting: Dose 5 mg/kg at each repetition.

For orientation: mortality means the share of the test organisms that died. The melting point is the temperature, or range, at which the solid turns liquid.

In the case of `N#Cc1nn(-c2c(Cl)cc(C(F)(F)F)cc2Cl)c(N)c1SC(Cl)(Cl)Cl` [Compound 11, 5-Amino-3-cyano-1-(2,6-dichloro-4-trifluoromethylphenyl)-4-trichloromethylthiopyrazole], in data set [1], the “score against all stages of Megoura viciae” value was 7/12.
As for `CC(C)[S+]([O-])c1c(C#N)nn(-c2c(Cl)cc(C(F)(F)F)cc2Cl)c1N` (stereo not drawn) [Compound 58, 5-Amino-3-cyano-1-(2,6-dichloro-4-trifluoromethylphenyl)-4-isopropylsulphinylpyrazole], the “score against all stages of Megoura viciae” value in data set [1] was 7/12.
For the compound `N#Cc1c(C(F)(F)F)nn(-c2c(Cl)cc(C(F)(F)F)cc2Cl)c1N` [Compound 113, 5-Amino-4-cyano-1-(2,6-dichloro-4-trifluoromethylphenyl)-3-trifluoromethylpyrazole], the mortality at 50 ppm in data set [2] (Megoura viciae, read-out: mortality of Megoura viciae) was determined as 100%. For the same compound, in data set [2] (Test 3 method (b), application of 50 ppm, score 0-3 per replicate, maximum 12), the “score from 4 replicates, Megoura viciae” value came out at 12. Also, the pest or weed control at 10 ppm in data set [3] turned out to be 100%. Besides, the figures for the “percentage survival through moulting of engorged tick larvae” value in data set [4] (Dose 1.0 mg/kg at each repetition), in data set [4] (setting [6]) and in data set [4] (setting [7]) were “only 47.9 percent survived”, “only 30.0 percent survived” and 8.3%, respectively. Besides, the “Result: ticks recovered / number of engorged ticks” value in data set [4] (setting [7]) is reported as “reduced”. Also, the “Result: ticks recovered / engorgement” value in data set [4] (setting [8]) and in data set [4] (setting [9]) was “No ticks recovered” throughout. Besides, the mortality at 500 ppm in data set [5] (read-out: mortality of larvae of Plutella xylostella) came to 100%.
As to `CC(=O)Nc1c(C#N)c(C#N)nn1-c1c(Cl)cc(C(F)(F)F)cc1Cl` [Compound 120, 5-Acetamido-1-(2,6-dichloro-4-trifluoromethylphenyl)-3,4-dicyanopyrazole], the “percentage survival through moulting of engorged tick larvae” value in data set [4] (setting [6]) is “only 62.5 percent survived”. Besides, in data set [4] (setting [7]), the “Result: ticks recovered / number of engorged ticks” value is given as “Less than five engorged ticks”. Moreover, the “Result: ticks recovered / engorgement” value in data set [4] (setting [8]) and in data set [4] (setting [9]) was “No ticks recovered” in each case.
Turning to `CC(=O)Nc1c(C#N)c(C(F)(F)F)nn1-c1c(Cl)cc(C(F)(F)F)cc1Cl` [Compound 133, 5-Acetamido-4-cyano-1-(2,6-dichloro-4-trifluoromethylphenyl)-3-trifluoromethylpyrazole], the pest or weed control at 10 ppm in data set [3] worked out at 100%. Further, the “Result: ticks recovered / engorgement” value in data set [4] (setting [6]), in data set [4] (setting [9]) and in data set [4] (Dose 15 mg/kg at each repetition) was “No ticks recovered” each time. Also, the mortality at 100 ppm in data set [5] (read-out: Plutella % mortality at 100 ppm) is 21%.
Turning to `CC(C)(C)C(=O)Nc1c(C#N)c(C#N)nn1-c1c(Cl)cc(C(F)(F)F)cc1Cl` [Compound 134, 1-(2,6-Dichloro-4-trifluoromethylphenyl)-3,4-dicyano-5-(2,2-dimethylpropionamido)-pyrazole], the “Result: ticks recovered / engorgement” value in data set [4] (setting [9]) is listed as “Less than five engorged ticks”; in data set [4] (Dose 10 mg/kg at each repetition) it was “No ticks recovered”.
`Cc1nn(-c2c(Cl)cc(C(F)(F)F)cc2Cl)c(N)c1SC(Cl)(Cl)Cl` [Compound 233, 5-Amino-1-(2,6-dichloro-4-trifluoromethylphenyl)-3-methyl-4-trichloromethylthiopyrazole] yielded a melting point of 156 °C.
Same read-out and setting: to `N#Cc1c(C(F)(F)F)nn(-c2c(Cl)cc(S(=O)(=O)C(F)(F)F)cc2Cl)c1[N+](=O)[O-]` [Compound 234, 4-Cyano-1-(2,6-dichloro-4-trifluoromethanesulphonylphenyl)-5-nitro-3-trifluoromethylpyrazole] belongs 168 to 169 °C; to `FC(F)c1cn(-c2c(Cl)cc(C(F)(F)F)cc2Cl)nc1C(F)(F)F` [Compound 235, 1-(2,6-Dichloro-4-trifluoromethylphenyl)-4-difluoromethyl-3-trifluoromethylpyrazole], 88 to 90 °C; to `Cc1c(C(F)(F)F)nn(-c2c(Cl)cc(C(F)(F)F)cc2Cl)c1N` [Compound 236, 5-Amino-1-(2,6-dichloro-4-trifluoromethylphenyl)-4-methyl-3-trifluoromethylpyrazole], 97 to 100 °C.
